Experimental data from patent US9034886B2, “4-aminoquinazoline derivatives and uses thereof” (Shanghai Institute of Pharmaceutical Industry, priority 2011, dated 2015).

How the values were obtained:
[1] = tested on: A549 human lung cancer cells; assay: In vitro anti-proliferative effect, CCK-8 method, A549; format: cell-based; settings: Homo sapiens, A549
Protocol: (§1) The inhibitory activities of the compounds towards Hut78 T lymphocytic leukemia cells, Jurkat E6-1 human T-cell lymphoma, PANC-1 human pancreatic cancer cells, A549 human lung cancer cells, K562 human chronic myelogenous leukemia cells, Hep3B2.1-7 human liver cancer cells, MDA-MB-435s human breast cancer cells. Colo320 human colorectal cancer cell lines, and PC-3 human prostate cancer at two concentrations of 100 μM and 10 μM were determined. The inhibition percentages were obtained through CCK-8 method.

[2] = tested on: PANC-1 human pancreatic cancer cells; assay: In vitro anti-proliferative effect, CCK-8 method, PANC-1; format: cell-based; settings: Homo sapiens, PANC-1
Protocol: as §1

[3] = tested on: Hep3B2.1-7 human liver cancer cells; assay: In vitro anti-proliferative effect, CCK-8 method, Hep3B; format: cell-based; settings: Homo sapiens, Hep3B cell strain, CCK-8 method; for inhibition at 10 µM: compound at 10 μM; for inhibition at 100 µM: compound at 100 μM
Protocol: as §1

[4] = tested on: Colo320 human colorectal cancer cell lines; assay: In vitro anti-proliferative effect, CCK-8 method, Colo320; format: cell-based; settings: Homo sapiens, COLO 320, Colo320 cell strain, CCK-8 method; for inhibition at 10 µM: compound at 10 μM; for inhibition at 100 µM: compound at 100 μM
Protocol: as §1

[5] = tested on: Jurkat E6-1 human T-cell lymphoma; assay: In vitro anti-proliferative effect, CCK-8 method, Jurkat E6-1; format: cell-based; settings: Homo sapiens, Jurkat E6.1
Protocol: as §1

HDAC1 = HDAC1 (Homo sapiens (Human), UniProt Q13547); assay: In vitro inhibition of subtype HDAC1 (HDAC1 Inhibitor Drug Screening Kit, Biovision); format: biochemical; settings: for inhibition at 1 µM / inhibition at 10 µM: read-out: % Inhibition towards HDAC1; for inhibitory activity against HDAC1 compared with MS-275: both concentrations 10 μM and 1 μM
Protocol: The in vitro inhibitory activities of the compounds towards the subtype HDAC1 were tested according to the instructions in the HDAC1 Inhibitor Drug Screening Kit (Biovision).
(1) The compounds to be tested were each individually prepared as 10 μM and 1 μM solutions and their inhibitory activities at these concentrations were tested.
Each dilution sample was placed in two wells and the enzyme inhibition IC50 of the compound was tested.

HDACs = assay: In vitro inhibition of HDACs (HDAC Inhibitor Drug Screening Kit, Biovision K340-100); format: biochemical
Protocol: The in vitro inhibitory activities of the compounds towards HDACs were tested according to the instructions in the HDAC Inhibitor Drug Screening Kit (Biovision/Catalog #K340-100).
(1) The compounds to be tested were each individually prepared as 2 mM, 200 μM and 40 μM solutions and their inhibitory activities at these concentrations were tested.

[6] = tested on: PC-3 human prostate cancer; assay: In vitro anti-proliferative effect, CCK-8 method, PC-3; format: cell-based; settings: Homo sapiens, PC-3 cell strain, CCK-8 method; for inhibition at 10 µM: compound at 10 μM; for inhibition at 100 µM: compound at 100 μM
Protocol: as §1

[7] = tested on: Hut78 T lymphocytic leukemia cells; assay: In vitro anti-proliferative effect, CCK-8 method, Hut78; format: cell-based; settings: Homo sapiens, HuT78, read-out: Hut-78 (inhibition %)
Protocol: as §1

[8] = tested on: MDA-MB-435s human breast cancer cells; assay: In vitro anti-proliferative effect, CCK-8 method, MDA-MB-435s; format: cell-based; settings: Homo sapiens, MDA-MB-435S
Protocol: as §1

[9] = tested on: K562 human chronic myelogenous leukemia cells; assay: In vitro anti-proliferative effect, CCK-8 method, K562; format: cell-based; settings: Homo sapiens, K562
Protocol: as §1

HDAC1, sequence (Q13547 whole entry): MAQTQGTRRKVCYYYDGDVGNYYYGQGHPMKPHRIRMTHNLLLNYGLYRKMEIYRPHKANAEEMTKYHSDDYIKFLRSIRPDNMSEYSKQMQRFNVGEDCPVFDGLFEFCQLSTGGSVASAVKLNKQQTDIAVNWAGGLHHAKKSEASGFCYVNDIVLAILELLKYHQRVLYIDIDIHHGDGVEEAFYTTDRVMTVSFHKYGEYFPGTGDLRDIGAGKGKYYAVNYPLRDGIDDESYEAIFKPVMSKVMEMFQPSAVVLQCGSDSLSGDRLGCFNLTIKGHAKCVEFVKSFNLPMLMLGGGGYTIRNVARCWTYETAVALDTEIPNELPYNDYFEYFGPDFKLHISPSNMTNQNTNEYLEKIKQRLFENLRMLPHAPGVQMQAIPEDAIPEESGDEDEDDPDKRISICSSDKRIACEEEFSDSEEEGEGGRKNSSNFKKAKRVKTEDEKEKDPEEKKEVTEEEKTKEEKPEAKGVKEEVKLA

## Nc1ccccc1NC(=O)c1ccc(Nc2ncnc3ccc(F)cc23)cc1 [Compound V-12, N-(2-aminophenyl)-4-(6-fluoroquinazoline-4-amino)benzamide]
[1]
  inhibition at 10 µM: -9%
  inhibition at 100 µM: 55.1%
[2]
  inhibition at 10 µM: 15.8%
  inhibition at 100 µM: 21.9%
[3]
  inhibition at 10 µM: 4.7%
  inhibition at 100 µM: 67.1%
[4]
  inhibition at 10 µM: 2.4%
  inhibition at 100 µM: 46.1%
[5]
  inhibition at 10 µM: 25%
  inhibition at 100 µM: 87.4%
HDAC1
  inhibition at 1 µM: 15%
  inhibition at 10 µM: 49.1%
HDACs
  IC50: 0.92 µM
HDACs; 40 μM
  Inhibition percentage (%) towards HDACs: 16.8%
HDACs; 200 μM
  Inhibition percentage (%) towards HDACs: 43.0%
HDACs; 2 mM
  Inhibition percentage (%) towards HDACs: 85.2%
[6]
  inhibition at 10 µM: 25.5%
  inhibition at 100 µM: 61.3%
[7]
  inhibition at 10 µM: 62.5%
  inhibition at 100 µM: 62.5%
[8]
  inhibition at 10 µM: 5.7%
  inhibition at 100 µM: 77.2%
[9]
  inhibition at 10 µM: 49.3%
  inhibition at 100 µM: 69.8%

## CC(=O)Nc1ccc2ncnc(Nc3ccc(C(=O)Nc4ccccc4N)cc3)c2c1 [Compound V-21, N-(2-aminophenyl)-4-(6-acetamidoquinazoline-4-amino)benzamide]
[1]
  inhibition at 10 µM: 17.1%
  inhibition at 100 µM: 96.4%
[2]
  inhibition at 10 µM: 12.5%
  inhibition at 100 µM: 33.3%
[3]
  inhibition at 10 µM: 11%
  inhibition at 100 µM: 68.1%
[4]
  inhibition at 10 µM: 9.5%
  inhibition at 100 µM: 45.9%
[5]
  inhibition at 10 µM: 49.3%
  inhibition at 100 µM: 89.7%
HDAC1
  inhibition at 1 µM: 55%
  inhibition at 10 µM: 86.9%
  inhibitory activity against HDAC1 compared with MS-275: superior to that of MS-275
HDACs; 40 μM
  Inhibition percentage (%) towards HDACs: 10.1%
HDACs; 200 μM
  Inhibition percentage (%) towards HDACs: 39.1%
HDACs; 2 mM
  Inhibition percentage (%) towards HDACs: 79.2%
[6]
  inhibition at 10 µM: 40.1%
  inhibition at 100 µM: 64.2%
[7]
  inhibition at 10 µM: 65.2%
  inhibition at 100 µM: 75.6%
[8]
  inhibition at 10 µM: 25.2%
  inhibition at 100 µM: 88.8%
[9]
  inhibition at 10 µM: 52.2%
  inhibition at 100 µM: 85.2%

## COc1cccc2ncnc(Nc3ccc(C(=O)Nc4ccncc4N)cc3)c12 [Compound V-8]
[1]
  inhibition at 10 µM: -5.9%
  inhibition at 100 µM: 38%
[2]
  inhibition at 10 µM: -1.8%
  inhibition at 100 µM: 34.9%
[3]
  inhibition at 10 µM: 5%
  inhibition at 100 µM: 90.4%
[4]
  inhibition at 10 µM: -1.8%
  inhibition at 100 µM: 86.4%
[5]
  inhibition at 10 µM: 36.4%
  inhibition at 100 µM: 96.3%
HDAC1
  inhibition at 1 µM: 21.4%
  inhibition at 10 µM: 62.7%
HDACs
  IC50: 7.76 µM
HDACs; 40 μM
  Inhibition percentage (%) towards HDACs: 8.9%
HDACs; 200 μM
  Inhibition percentage (%) towards HDACs: 41.1%
HDACs; 2 mM
  Inhibition percentage (%) towards HDACs: 46.2%
[6]
  inhibition at 10 µM: 29.7%
  inhibition at 100 µM: 89.3%
[7]
  inhibition at 10 µM: 17.5%
  inhibition at 100 µM: 83.6%
[8]
  inhibition at 10 µM: 14.2%
  inhibition at 100 µM: 94.5%
[9]
  inhibition at 10 µM: 56.9%
  inhibition at 100 µM: 94.5%

## Nc1cnccc1NC(=O)c1ccc(CNc2ncnc3ccccc23)cc1 [Compound V-26]
[1]
  inhibition at 10 µM: 4.2%
  inhibition at 100 µM: 63.7%
[2]
  inhibition at 10 µM: 5.1%
  inhibition at 100 µM: 40.8%
[3]
  inhibition at 10 µM: 11.7%
  inhibition at 100 µM: 63.5%
[4]
  inhibition at 10 µM: -0.2%
  inhibition at 100 µM: 44.4%
[5]
  inhibition at 10 µM: 76.9%
  inhibition at 100 µM: 95.1%
HDAC1
  inhibition at 1 µM: 46.4%
  inhibition at 10 µM: 88.4%
  inhibitory activity against HDAC1 compared with MS-275: superior to that of MS-275
HDACs; 40 μM
  Inhibition percentage (%) towards HDACs: 11.4%
HDACs; 200 μM
  Inhibition percentage (%) towards HDACs: 40.2%
HDACs; 2 mM
  Inhibition percentage (%) towards HDACs: 82.4%
[6]
  inhibition at 10 µM: 8.7%
  inhibition at 100 µM: 52.6%
[7]
  inhibition at 10 µM: 79.6%
  inhibition at 100 µM: 86.9%
[8]
  inhibition at 10 µM: 16.6%
  inhibition at 100 µM: 73.6%
[9]
  inhibition at 10 µM: 54%
  inhibition at 100 µM: 88.2%

## CS(=O)(=O)CCNCc1ccc(-c2ccc3ncnc(Nc4ccc(C(=O)Nc5ccccc5N)cc4)c3c2)o1 [Compound V-19, N-(2-aminophenyl)-4-[6-(5-((2-(methylsulfonyl)ethylamino)methyl)furyl)quinazoline-4-amino]benzamide]
[1]
  inhibition at 10 µM: 6.3%
  inhibition at 100 µM: 37.3%
[2]
  inhibition at 10 µM: 20.2%
  inhibition at 100 µM: 26.2%
[3]
  inhibition at 10 µM: 25.4%
  inhibition at 100 µM: 49.9%
[4]
  inhibition at 10 µM: 12.9%
  inhibition at 100 µM: 40.1%
[5]
  inhibition at 10 µM: 58.3%
  inhibition at 100 µM: 80.9%
HDAC1
  inhibition at 1 µM: 47.6%
  inhibition at 10 µM: 80.2%
  inhibitory activity against HDAC1 compared with MS-275: superior to that of MS-275
HDACs
  IC50: 1.37 µM
HDACs; 40 μM
  Inhibition percentage (%) towards HDACs: 22.7%
HDACs; 200 μM
  Inhibition percentage (%) towards HDACs: 57.8%
HDACs; 2 mM
  Inhibition percentage (%) towards HDACs: 72.3%
[6]
  inhibition at 10 µM: 50.2%
  inhibition at 100 µM: 61%
[7]
  inhibition at 10 µM: 43%
  inhibition at 100 µM: 77%
[8]
  inhibition at 10 µM: 33%
  inhibition at 100 µM: 77%
[9]
  inhibition at 10 µM: 54.3%
  inhibition at 100 µM: 85.8%
